Patent publication US7705045B2, “Prodrugs built as multiple self-elimination-release spacers” (Syntarga, B.V., priority 2003, dated 2010)
Converted amounts (≈) assume the structure as drawn. “Also recorded” adds a separate entry of the source.

Experiments:
[1] = Stability of reference compounds on treatment with zinc and acetic acid; type: physicochemical; conditions: zinc powder, MeOH/THF/AcOH, Rt, 16 h
Description: (§1) Stability of 35. Treatment of 35 with Zinc (see FIG. 28). Dibenzyl carbonate 35 (13 mg) was dissolved in 2.5 mL MeOH/THF/AcOH (1.5/0.5/0.5). Zinc powder was added and the reaction mixture was stirred at Rt for 16 h. […] The mixture was filtered over hyflo and the residue was washed with MeOH/dichloromethane.
as §1, with “36.” for “35.”, “36” for “35”, “Paclitaxel-2′-carbonate 36 (3” for “Dibenzyl carbonate 35 (13”, “MeOH/dichloromethane. The filtrate was concentrated in vacuo.” for “MeOH/dichloromethane.”

[2] = test system: H226; non-small cell lung cancer; experiment: SRB anti-proliferative test, H226; type: cell-based, human; conditions: 5 days of incubation
Description: (§2) Cytoxicity of multiple release spacers 16 and 23. The anti-proliferative effect of the monomeric spacers was determined in vitro applying seven well-characterised human tumor cell lines and the microculture sulphorhodamine B (SRB) test. The anti-proliferative effects were determined and expressed as ID50 values (ng/mL), which are the (pro)drug concentrations that gave 50% inhibition of cell growth when compared to control cell growth after 5 days of incubation.

[3] = test system: seven well-characterised human tumor cell lines; experiment: Cytotoxicity in a panel of seven human tumor cell lines; type: cell-based
Source text: Upon removal or transformation of the specifier V in the compounds or prodrugs disclosed in this invention, thus upon unmasking of B of the branched spacer or spacer system coupled to V, under physiological conditions, the reactive intemiediate(s) formed after self-elimination is (are) likely to be trapped by water, thereby regenerating molecules like aminodiol 23 and/or aminotriol 16. When a multiple release conjugate or prodrug constructed with one of the monomers disclosed in this invention is used for drug delivery purposes, the degradation products of the prodrug or (bio)conjugate after the multiple self-elimination cascade must be non-toxic (except from drugs to be released in tumor targeting approaches). Therefore, we have tested the aminotriol monomer 16 and aminodiol monomer 23 for their cytotoxicity in a panel of seven weul-characterized human tumor cell lines. Both compounds turned out to be non-toxic (see example 33).
Cytoxicity of multiple release spacers 16 and 23. The anti-proliferative effect of the monomeric spacers was determined in vitro applying seven well-characterised human tumor cell lines and the microculture sulphorhodamine B (SRB) test. […]

EVSA-T; breast cancer = experiment: SRB anti-proliferative test, EVSA-T; type: cell-based, human; conditions: 5 days of incubation
Description: as §2

M19; melanoma = experiment: SRB anti-proliferative test, M19; type: cell-based, human; conditions: 5 days of incubation
Description: as §2

IGROV; ovarian cancer = experiment: SRB anti-proliferative test, IGROV; type: cell-based, human; conditions: 5 days of incubation
Description: as §2

A498; renal cancer = experiment: SRB anti-proliferative test, A498; type: cell-based, human; conditions: 5 days of incubation
Description: as §2

WIDR; colon cancer = experiment: SRB anti-proliferative test, WIDR; type: cell-based, human; conditions: 5 days of incubation
Description: as §2

MCF-7; breast cancer = experiment: SRB anti-proliferative test, MCF-7; type: cell-based, human; conditions: 5 days of incubation
Description: as §2

[4] = Release of leaving groups upon reduction of the nitro group with zinc and acetic acid (TLC, 1H-NMR); type: physicochemical
Description: (§3) Proof of principle for triple elimination. Formation of benzyl alcohol upon reduction of 13 (see FIG. 19). Compound 13 was dissolved in 3 mL of MeOH/AcOH/THF (1.5/0.5/1). Zinc powder was added and the reaction mixture was stirred at Rt. […] The mixture was filtered over hyflo and the residue was washed with MeOH/dichloromethane.
as §3, with “phenethyl” for “benzyl”, “14” for “13”, “3.75” for “3”, “(2/0.75/1).” for “(1.5/0.5/1).”
Reduction of the nitro group in 15. Failure of elimination of benzylamine (see FIG. 20). Compound 15 (16 mg) was dissolved in 10 mL of MeOH/AcOH (8/2). Zinc powder was added and the reaction mixture was stirred at Rt. […] The mixture was filtered over hyflo and the residue was washed with MeOH/dichloromethane. The filtrate was concentrated in vacuo, the mixture was freeze-dried. Under a number of varied circumstances (different deuterated solvent combinations, different pH (acidic, neutral, and basic), different buffers), ^1H-NMR did hardly show formation of free benzylamine. After 2 days, maximally 33 percent of free benzylamine was observed (^1H-NMR).
Proof of principle for double elimination. Formation of paclitaxel upon reduction of 22 (see FIG. 22). Nitrocinnamyl biscarbonate 22 was dissolved in 3.5 mL of MeOH/AcOH/THF (2/0.5/1). Zinc powder was added and the reaction mixture was stirred at Rt. […] The mixture was filtered over hyflo and the residue was washed with MeOH/dichloromethane. The filtrate was concentrated in vacuo, dioxane was added and the resulting solution was freeze-dried.
Proof of principle for quadruple elimination. Formation of paclitaxel upon reduction of 26 (see FIG. 23). Compound 26 was dissolved in 3.25 mL MeOH/AcOH/TF (1.5/0.75/1). Zinc powder was added and the reaction mixture was stirred. […] After 16 h, the mixture was filtered over hyflo and the residue was washed with MeOH/dichloromethane. […]

[5] = zinc powder, MeOH/AcOH(/THF), Rt

2′-O-cinnamyloxycarbonylpaclitaxel [Compound 36]
stability on treatment with zinc and acetic acid (TLC, 1H-NMR) [1]: did not show any degradation; also recorded: no formation of new compounds

Nc1ccc(C=C(CO)CO)cc1 [Compound 23]
ID50 [2]: 0.042406 µg/mL (≈ 0.237 µM) | cytotoxicity [3]: non-toxic | ID50 (EVSA-T; breast cancer): > 0.0625 µg/mL | ID50 (M19; melanoma): > 0.0625 µg/mL | ID50 (IGROV; ovarian cancer): > 0.0625 µg/mL | ID50 (A498; renal cancer): 0.056784 µg/mL (≈ 0.317 µM) | ID50 (WIDR; colon cancer): > 0.0625 µg/mL | ID50 (MCF-7; breast cancer): > 0.0625 µg/mL

O=C(NCc1ccccc1)OCc1ccc([N+](=O)[O-])cc1 [Compound 34]
release of leaving groups by 1H-NMR ([4]; after reduction with zinc/acetic acid): complete release of free benzylamine | formation of free leaving group by thin layer chromatography [4, 5]: formation of a substantial amount of benzylamine | time to disappearance of starting compound (thin layer chromatography) [4, 5]: 100 min

O=C(OCc1ccccc1)OCc1ccccc1 [Compound 35, Dibenzyl carbonate]
stability on treatment with zinc and acetic acid (TLC, 1H-NMR) [1]: did not show any degradation; also recorded: no formation of new compounds
